Columns and labels:
Korean native steers [1] = assay: Body weight and average daily gain according to NALT feeding under heat stress conditions; type: in vivo, Korean native cattle
Protocol: In the present disclosure, 8 Korean native steers (15.9±0.16 months old on average) were selected and used. The experimental procedure and method were approved by the Institutional Animal Care and Use Committee at Konkuk University, Seoul, Republic of Korea (Approval No. KU17136). […] Analysis of chemical composition (moisture, crude protein, crude fat, crude ash, etc.) and amino acids (19 types) of the basal diet stored at −20° C. was performed, and the results are shown in Table 3. After grouping the animals by statistical analysis of initial body weights, the animals were bred in 1.0×1.5 m^2 individual pens during the experiment period. The feed was offered based on an amount of dry matter of daily total mixed ration (TMR) per head. After 7 days of an adaptation period for N-acetyl-L-tryptophan (NALT), a mixture of 0.1% N-acetyl-L-tryptophan (NALT) and the total mixed ration was fed to individual animals every morning at 8 a.m. for 6 weeks, and water was available ad libitum. Total amounts of L-tryptophan ingested by the control and the experimental group (NALT-treated group) by feeding NALT were 6.0 g/day/head and 18.2 g/day/head, respectively. The experiment was performed such that the NALT-treated group ingested 12.2 g/day/head more L-tryptophan than the control. Meanwhile, results of growth performance analysis (body weight and average feed intake) and genetic analysis of loin tissue were obtained by statistically comparing and analyzing significant differences between the control and the NALT-treated group, and results of hematological analysis were obtained via statistical comparison and analysis depending on NALT treatment, experiment period (days), and interaction (treatment×days). These numerical values were expressed as average values, and a significance test was performed at the 5% level using Student's t-test by using a JMP 5.0 software package (SAS Institute Inc., Cary, NC, USA). Temperature (° C.) and relative humidity (%) were recorded every day during a one-week adaptation period and a 6-week experiment period using a portable temperature and humidity meter. Average temperature and average relative humidity of each week were calculated using the temperature and relative humidity recorded during the total experiment period. In addition, a temperature-humidity index (THI) was calculated using temperature and humidity as shown in the following equation, and heat stress state may be diagnosed using the THI as an index feature of a heat load. THI=(1.8×T+32)−[0.55−0.0055×RH)×(1.8×T−26.8) Initial weight (week 0), intermediate weight (week 5), and end weight (week 10) of sentinel animals were measured, i.e., three times in total, before offering morning feed. The average daily gain (ADG) of the sentinel animals was calculated by dividing the differences in weight, between the initial weight and the intermediate weight and between the intermediate weight and the end weight, by the total number of days of the experiment.

Korean native steers [2] = assay: Feed intake and drinking water intake according to NALT feeding under heat stress conditions; type: in vivo, Korean native cattle; settings: for Drinking water intake / Feed intake: 0.1% NALT
From the text: After grouping the animals by statistical analysis of initial body weights, the animals were bred in 1.0×1.5 m^2 individual pens during the experiment period. The feed was offered based on an amount of dry matter of daily total mixed ration (TMR) per head. After 7 days of an adaptation period for N-acetyl-L-tryptophan (NALT), a mixture of 0.1% N-acetyl-L-tryptophan (NALT) and the total mixed ration was fed to individual animals every morning at 8 a.m. for 6 weeks, and water was available ad libitum. Total amounts of L-tryptophan ingested by the control and the experimental group (NALT-treated group) by feeding NALT were 6.0 g/day/head and 18.2 g/day/head, respectively. The experiment was performed such that the NALT-treated group ingested 12.2 g/day/head more L-tryptophan than the control.
Meanwhile, results of growth performance analysis (body weight and average feed intake) and genetic analysis of loin tissue were obtained by statistically comparing and analyzing significant differences between the control and the NALT-treated group, and results of hematological analysis were obtained via statistical comparison and analysis depending on NALT treatment, experiment period (days), and interaction (treatment×days). These numerical values were expressed as average values, and a significance test was performed at the 5% level using Student's t-test by using a JMP 5.0 software package (SAS Institute Inc., Cary, NC, USA).
Temperature (° C.) and relative humidity (%) were recorded every day during a one-week adaptation period and a 6-week experiment period using a portable temperature and humidity meter. Average temperature and average relative humidity of each week were calculated using the temperature and relative humidity recorded during the total experiment period. In addition, a temperature-humidity index (THI) was calculated using temperature and humidity as shown in the following equation, and heat stress state may be diagnosed using the THI as an index feature of a heat load. THI=(1.8×T+32)−[0.55−0.0055×RH)×(1.8×T−26.8)
Feed intake of each sentinel animal was calculated by measuring a total amount of feed offered and an amount left over every day, and drinking water intake thereof was calculated every day by measuring a total amount of drinking water offered and an amount left over. Also, since the amount of feed left over was measured in pen units, DMI/BW % was calculated using the equation DMI/BW %=1.2425+1.9218×NEm−0.7259×(NEm)^2 and corrected using actual data of the experiment to calculate data for each of the two heads included in each pen. Analysis results of changes in feed intake and drinking water intake of the control and the NALT-treated group are shown in Table 12. […] Based thereon, it may be interpreted that the feed intake of cattle fed with NALT increased compared with the control without having increased drinking water intake even under heat stress conditions.

CC(=O)N[C@@H](Cc1c[nH]c2ccccc12)C(=O)O [NALT, N-acetyl-L-tryptophan]
Body weight (Korean native steers [1]; heat stress, 0.1% NALT, Week 0 (initial weight)): 428.8 kg
Body weight (Korean native steers [1]; heat stress, 0.1% NALT, Week 5): 480.8 kg
Body weight (Korean native steers [1]; heat stress, 0.1% NALT, Week 10): 510.5 kg
ADG (Korean native steers [1]; heat stress, 0.1% NALT, week 0 to week 5): 1.49 kg/day
Total ADG (Korean native steers [1]; heat stress, 0.1% NALT, week 0 to week 10): 1.17 kg/day
ADG (Korean native steers [1]; heat stress, 0.1% NALT, week 5 to week 10): 0.85 kg/day
Average daily gain compared to the control (Korean native steers [1]; period where the THI was over 80 (high heat stress)): significantly increased
Drinking water intake (Korean native steers [2]; THIavg < 80): 35.3 kg
Feed intake (Korean native steers [2]; THIavg < 80): 13.7 kg
Drinking water intake (Korean native steers [2]; THIavg > 80): 44.6 kg
Feed intake (Korean native steers [2]; THIavg > 80): 13.5 kg
Feed intake compared to the control (Korean native steers [2]; THI of 80 or more): significantly increased
Average feed intake (Korean native steers [2]; entire experiment period): 13.62 kg/day
Average feed intake compared with the control (Korean native steers [2]; entire experiment period): no statistically significant difference
Drinking water intake compared with the control (Korean native steers [2]; regardless of THI conditions): statistically significant decrease

From US12186303B2, “Feed additive for cattle comprising n-acetyl-l-tryptophan as active ingredient” (CJ CHEILJEDANG CORPORATION, priority 2018, dated 2025)
